# According to US20240360148A1 (SUVALENT THERAPEUTICS, INC., priority 2021, published 2024):
# pIC50: −log10 of the molar value. Read-outs that look alike come from different tables or passages of the source.
# What was measured:
# [1] = Plasma protein binding, equilibrium dialysis, mouse plasma; assay type: in vitro ADME; settings: 5 hours at 37° C., read-out: PPB % bound Mouse (converted)
# Protocol: (§1) The compounds of interest were evaluated for various PK parameters. Specifically CACO permeability/efflux and plasma protein binding (PPP) were determined. Stock solutions were prepared at 10 mM in DMSO for test and reference compounds. Aliquots of the stock solution were diluted to 500× of final concentration (0.5 mM) with DMSO, then further diluted upon the addition of bank PE3-buffer to 20× of final concentration (20 μM). Then test and reference compounds were prepared in plasma at 1 μM. For 0 hour incubation: 25 μL of the plasma spiked with test and reference compounds was transferred into a 96-well sample preparation plate, and then 25 μL blank PB-buffer was added. The samples were quenched by 200 μL of IS solution to prepare [Initial]0h samples. For 5 hours incubation: 100 μL of the plasma spiking with test and reference compounds was loaded on donor side, and 100 μL of blank PB-buffer were loaded on receiver side of the equilibrium dialysis device. Samples were incubated in an air-bath shaker (60 rpm) for 5 hours at 37° C. After 5 hours incubation, 25 μL of samples (from both the donor sides and receiver sides of the dialysis apparatus) was aspirated and added into new sample preparation plates, separately. 25 μL of blank PB-buffer was added to donor side samples and 25 μL of blank plasma was added to receiver side samples to balance the matrix. The samples were quenched with 200 μL of IS solution. The assay plate was shaken at the vibrator (Hangzhou Allsheng, MX100-4A) for 10 min (600 rpm) and then centrifuged at 5,594×g for 15 min (Thermo Multifuge×3R). An aliquot of the 50 μL supernatant was taken from each well and diluted by 50 μL distilled water, then analyzed by UPLC-MS/MS.
# [2] = Plasma protein binding, equilibrium dialysis, human plasma; assay type: in vitro ADME; settings: 5 hours at 37° C., read-out: PPB % bound Human (converted)
# Protocol: as §1
# SAE1 [3] = molecular target: SAE1 (Homo sapiens (Human), UniProt Q9UBE0+Q9UBT2); assay: SAE High Throughput Biochemical Assay (HTRF), 15 min preincubation; settings: read-out: 15 min preincubation HTRF IC50 (μM) Ave, SAE1 12.5 nM, ATP 100 μM
# Sequence of SAE1 (Homo sapiens (Human), UniProt Q9UBE0+Q9UBT2) (Q9UBE0 whole entry): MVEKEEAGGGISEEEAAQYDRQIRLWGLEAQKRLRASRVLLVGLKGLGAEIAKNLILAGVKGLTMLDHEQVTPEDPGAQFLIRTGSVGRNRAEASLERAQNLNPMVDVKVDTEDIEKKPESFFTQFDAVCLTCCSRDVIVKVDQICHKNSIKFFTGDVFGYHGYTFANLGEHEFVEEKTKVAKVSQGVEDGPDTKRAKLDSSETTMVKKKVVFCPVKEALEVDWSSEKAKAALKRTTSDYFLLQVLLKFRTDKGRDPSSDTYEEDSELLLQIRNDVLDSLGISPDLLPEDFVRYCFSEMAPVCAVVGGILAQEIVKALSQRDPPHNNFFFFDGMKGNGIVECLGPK
# Sequence of SAE1 (Homo sapiens (Human), UniProt Q9UBE0+Q9UBT2) (Q9UBT2 whole entry): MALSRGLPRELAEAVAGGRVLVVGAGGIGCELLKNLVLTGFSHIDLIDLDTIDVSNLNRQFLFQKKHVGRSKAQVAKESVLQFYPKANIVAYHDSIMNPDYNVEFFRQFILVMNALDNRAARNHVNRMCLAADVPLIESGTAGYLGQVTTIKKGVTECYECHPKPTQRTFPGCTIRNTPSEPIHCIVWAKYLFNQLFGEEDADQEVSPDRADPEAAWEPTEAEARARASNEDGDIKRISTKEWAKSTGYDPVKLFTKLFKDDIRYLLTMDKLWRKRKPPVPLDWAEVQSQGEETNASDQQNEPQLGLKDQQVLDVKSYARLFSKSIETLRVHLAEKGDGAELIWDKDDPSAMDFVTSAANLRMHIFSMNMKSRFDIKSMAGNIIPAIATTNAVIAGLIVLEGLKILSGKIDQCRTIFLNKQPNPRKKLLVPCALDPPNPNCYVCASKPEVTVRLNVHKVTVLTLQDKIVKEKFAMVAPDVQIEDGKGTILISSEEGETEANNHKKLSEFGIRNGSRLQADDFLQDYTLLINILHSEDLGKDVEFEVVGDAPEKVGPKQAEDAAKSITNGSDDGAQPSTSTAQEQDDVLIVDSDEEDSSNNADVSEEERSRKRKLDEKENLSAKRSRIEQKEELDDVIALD
# Outline: (§2)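 HTRF detection of SUMO transfer from SUMO-GST to UBC9-His (40 nM each) by SAE1 at 12.5 nM used 100 μM ATP in pH 7.5 HEPES buffer with 10 mM MgCl2 and 0.1% BSA. Enzyme and compound were preincubated 15 min at RT and the reaction ran 45 min, with readings after 2 h and overnight.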
# [4] = tested on: sumoylation levels (SUMO 2/3 conjugates) in HCT-116 cells; assay: HCT-116 4 Hour Cell Assay (Western, SUMO 2/3 conjugates); assay type: cell-based; settings: 4 h treatment, Anti-Sumo 2-3 immunoblot, read-out: HCT-116 Western 4 h IC50 (μM) Ave
# Outline: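 IC50 derived from fluorescent immunoblot quantification of SUMO 2/3 conjugate bands, normalized to total protein, after non-reducing SDS-PAGE. Lysis used RIPA plus NEM; exposure was 4 h across 11 concentrations, three-fold serial dilution starting at 25 μM.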
# SAE1 [5] = molecular target: SAE1 (Homo sapiens (Human), UniProt Q9UBT2); assay: SAE High Throughput Biochemical Assay (HTRF), 15 min preincubation; settings: SAE1 12.5 nM, ATP 100 μM
# Sequence of SAE1 (Homo sapiens (Human), UniProt Q9UBT2) (Q9UBE0 whole entry): as the sequence (Q9UBE0 whole entry) above
# Sequence of SAE1 (Homo sapiens (Human), UniProt Q9UBT2) (Q9UBT2 whole entry): as the sequence (Q9UBT2 whole entry) above
# Outline: as §2
# [6] = Caco-2 permeability/efflux; assay type: in vitro ADME; settings: human, Caco-2, pH 7.4; B-A / A-B
# Protocol: (§3) Caco-2 cells were obtained from American Tissue Culture Collection (Rockville, MD). The cells were maintained in Modified Eagle's medium (MEM), containing 10% heat-inactivated fetal bovine serum (FBS), and 1% non-essential amino acids, in CO2 at 37° C. Cells were seeded on polycarbonate filter inserts (Millipore, CAT #PSHT 010 R5). The cells were cultured for 21-28 days prior to the permeability experiments. The Lucifer Yellow permeability was checked before and after the assay. Compounds were dissolved at 10 mM in 100% dimethyl sulfoxide (DMSO) and diluted for studies in Hanks Balanced Salt Solution (HBSS, Invitrogen, Cat #14025-092) with 25 mM HEPES, pH 7.4. Compounds were tested at 10 µM in both the apical-to-basolateral (A-B) and basolateral-to-apical (B-A) directions, incubations were conducted at 37° C. for 90 min. At the end of incubation, samples were diluted by assay buffer, and analyzed by LC-MS/MS. The concentrations of the compounds were quantified by standard curve. The first comparator example (Comp. Ex. 1) is the chloro substituted thienodihydropyridine
# Caco-2 cells = assay: Caco-2 permeability/efflux; assay type: in vitro ADME; settings: 10 uM, 37° C., 90 min, pH 7.4
# Protocol: as §3
# Solubility Evaluation = assay type: physicochemical; settings: kinetic from dmso stock, 1 hour at RT
# Protocol: The compounds of interest were evaluated for their solubility in various biological solutions. Specifically, aliquots (8 μL) of reference and test compound stock solutions (10 mM) were added into 792 μL of buffer (PBS, pH7.4, FaSSIF, pH 6.5, or FaSSGF, pH 1.6) respectively (Final DMSO conc.: 1%). Sample tubes were shaken for 1 hour (1000 rpm) at RT. The experiment was calibrated using 300 μM spiked solution (SS) in MeOH/CAN (4:1) by adding 6 μL of 10 mM compound stock solution in 194 μL MeOH/ACN(4:1) ranging from 60 μM to 0.02 μM. The samples were centrifuged (10 min-12000 rpm) to precipitate un-dissolved particles. The supernatants were transferred to a new tube or plate. Supernatants were diluted 10 times and 100 times with 100 mM buffer then analyzed by LC-MS/MS. SGF=simulated gastric fluid, SIF=simulated intestinal fluid, PBS=phosphate buffered saline pH 7.4 Values are noted in μM.
# [7] = Plasma protein binding, equilibrium dialysis, dog plasma; assay type: in vitro ADME; settings: 5 hours at 37° C., read-out: PPB % bound Dog (converted)
# Protocol: as §1
# [8] = Plasma protein binding, equilibrium dialysis, rat plasma; assay type: in vitro ADME; settings: 5 hours at 37° C., read-out: PPB % bound Rat (converted)
# Protocol: as §1
# [9] = PBS (phosphate buffered saline), aqueous buffer, phosphate buffered saline pH 7.4, 1% DMSO, read-out: Solubilities PBS
# [10] = simulated intestinal fluid (FaSSIF, pH 6.5), 1% DMSO, read-out: Solubilities SIF
Compound,"fraction unbound at 5 h, 1 μM [1]","fraction unbound at 5 h, 1 μM [2]",IC50 (SAE1 [3]) [µM],"IC50 ([4]; Homo sapiens, HCT-116, 4 h) [µM]",pIC50 (SAE1 [5]),"efflux ratio at 90 min, 10 μM [6]",Caco-2 apparent permeability (Papp) (Caco-2 cells; apical-to-basolateral),Caco-2 apparent permeability (Papp) (Caco-2 cells; basolateral-to-apical),solubility at 1 h (Solubility Evaluation; [9]) [µM],solubility at 1 h (Solubility Evaluation; [10]) [µM],"fraction unbound at 5 h, 1 μM [7]",IC50 [4] [µM],"fraction unbound at 5 h, 1 μM [8]"
"C=CC(=O)N1Cc2sc(Cl)cc2[C@H](c2ccccc2-c2cn(CC)nc2C(F)(F)F)C1 [Comp. Ex. 1, reference compound]",< 0.001,0.002,,,,,,,,,,,
"CCn1cc(-c2ccccc2[C@@H]2CN(C(=O)/C=C/CN(C)C)Cc3sc(Cl)cc32)c(C(F)(F)F)n1 [Comp. Ex. 2, reference compound]",< 0.003,0.008,,,,,,,,,,,
C=CC(=O)N1Cc2sc(C#N)cc2[C@H](c2cccc(F)c2-c2cn(CC)nc2C(F)(F)F)C1 [Compound 227],0.021,,0.12,0.057,,,,,,,,,
"CCn1cc(-c2ccccc2[C@@H]2CN(C(=O)/C=C/CNC)Cc3sc(C#N)cc32)c(C(F)(F)F)n1 [Example 12, (S, E)-4-(2-(1-Ethyl-3-(trifluoromethyl)-1 H-pyrazol-4-yl)phenyl)-6-(4-(methylamino)but-2-enoyl)-4,5,6,7-tetrahydrothieno[2,3-c]pyridine-2-carbonitrile]",0.035,0.049,,0.353,5.48,5,5 10^-6 cm/s,58 10^-6 cm/s,,,,,
"CCn1cc(-c2c(F)cccc2[C@@H]2CN(C(=O)/C=C/[C@H](C)NC)Cc3sc(C#N)cc32)c(C(F)(F)F)n1 [Example 89, (S)-4-(2-(1-Ethyl-3-(trifluoromethyl)-1 H pyrazol-4-yl)-3-fluorophenyl)-6-((S, E)-4-(methylamino)pent-2-enoyl)-4,5,6,7-tetrahydrothieno[2,3-c]pyridine-2-carbonitrile]",0.024,0.029,1.13,0.145,,,8 10^-6 cm/s,11 10^-6 cm/s,78,90,,,
"CCn1cc(-c2c(F)cccc2[C@@H]2CN(C(=O)/C=C/[C@@H]3CCCN3)Cc3sc(C#N)cc32)c(C(F)(F)F)n1 [Example 118, (S)-4-(2-(1-Ethyl-3-(trifluoromethyl)-1H-pyrazol-4-yl)-3-fluorophenyl)-6-((E)-3-((S)pyrrolidin-2-yl)acryloyl)-4,5,6,7-tetrahydrothieno[2,3-c]pyridine-2-carbonitrile]",0.014,0.032,0.29,0.114,,,4 10^-6 cm/s,21 10^-6 cm/s,57,70,,,
"CCn1cc(-c2c(F)cccc2[C@@H]2CN(C(=O)/C=C/CN(C)C)Cc3sc(C#N)cc32)c(C(F)(F)F)n1 [Example 215, (S,E)-6-(4-(dimethylamino)but-2-enoyl)-4-(2-(1-ethyl-3-(trifluoromethyl)-1 H-pyrazol-4-yl)-3-fluorophenyl)-4,5,6,7-tetrahydrothieno[2,3-c]pyridine-2-carbonitrile]",0.023,0.04,1.35,0.0856,,1,15 10^-6 cm/s,20 10^-6 cm/s,,,0.02,,
"CCn1cc(-c2c(F)cccc2[C@@H]2CN(C(=O)/C=C/CNC)Cc3sc(C#N)c(C)c32)c(C(F)(F)F)n1 [Example 217, (S, E)-4-(2-(1-ethyl-3-(trifluoromethyl)-1 H-pyrazol-4-yl)-3-fluorophenyl)-3-methyl-6-(4-(methylamino)but-2-enoyl)-4,5,6,7-tetrahydrothieno[2,3-c]pyridine-2-carbonitrile]",0.026,0.028,0.13,0.101,6.82,2,6 10^-6 cm/s,14 10^-6 cm/s,,,0.013,0.18,0.051
